Measurements: US8598157B2, “5-alkynyl-pyridines” (Boehringer Ingelheim International GmbH, priority 2011, dated 2013)

Columns and labels:
[1] = tested on: MB453 cells; test: alamarBlue MB453 cell assay (antiproliferative/cytotoxicity); format: cell-based; conditions: Homo sapiens; MDA MB 453 breast cancer cell line
Method in brief: (§1)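 Growth inhibition is assessed over 5-6 days of compound exposure (10 μM top, threefold dilutions) using alamarBlue fluorescence; EC50 values are fitted after subtracting medium blank.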

[2] = tested on: U87 cells; test: U87 cell assay (antiproliferative/cytotoxicity); format: cell-based; conditions: U-87MG human glioblastoma cells
Method in brief: as §1

[3] = tested on: MCF7 cells; test: alamarBlue MCF7 cell assay (antiproliferative/cytotoxicity); format: cell-based; conditions: MCF7 human breast cancer cell line
Method in brief: as §1

[4] = tested on: H460 cells; test: alamarBlue H460 cell assay (antiproliferative/cytotoxicity); format: cell-based; conditions: NCI-H460; H460 human lung carcinoma cells
Method in brief: as §1

[5] = tested on: BT474 cells; test: alamarBlue BT474 cell assay (antiproliferative/cytotoxicity); format: cell-based; conditions: BT-474 human breast cancer cell line
Method in brief: as §1

[6] = target: PI3Kalpha (Homo sapiens (Human), UniProt P42336); test: Inhibition of PI3Kalpha-induced PIP-2 phosphorylation (filter-binding assay); format: biochemical; conditions: 33P-ATP, p85alpha/His-p110alpha, read-out: IC50 PI3Kα
Chain of PI3Kalpha (P42336 whole entry): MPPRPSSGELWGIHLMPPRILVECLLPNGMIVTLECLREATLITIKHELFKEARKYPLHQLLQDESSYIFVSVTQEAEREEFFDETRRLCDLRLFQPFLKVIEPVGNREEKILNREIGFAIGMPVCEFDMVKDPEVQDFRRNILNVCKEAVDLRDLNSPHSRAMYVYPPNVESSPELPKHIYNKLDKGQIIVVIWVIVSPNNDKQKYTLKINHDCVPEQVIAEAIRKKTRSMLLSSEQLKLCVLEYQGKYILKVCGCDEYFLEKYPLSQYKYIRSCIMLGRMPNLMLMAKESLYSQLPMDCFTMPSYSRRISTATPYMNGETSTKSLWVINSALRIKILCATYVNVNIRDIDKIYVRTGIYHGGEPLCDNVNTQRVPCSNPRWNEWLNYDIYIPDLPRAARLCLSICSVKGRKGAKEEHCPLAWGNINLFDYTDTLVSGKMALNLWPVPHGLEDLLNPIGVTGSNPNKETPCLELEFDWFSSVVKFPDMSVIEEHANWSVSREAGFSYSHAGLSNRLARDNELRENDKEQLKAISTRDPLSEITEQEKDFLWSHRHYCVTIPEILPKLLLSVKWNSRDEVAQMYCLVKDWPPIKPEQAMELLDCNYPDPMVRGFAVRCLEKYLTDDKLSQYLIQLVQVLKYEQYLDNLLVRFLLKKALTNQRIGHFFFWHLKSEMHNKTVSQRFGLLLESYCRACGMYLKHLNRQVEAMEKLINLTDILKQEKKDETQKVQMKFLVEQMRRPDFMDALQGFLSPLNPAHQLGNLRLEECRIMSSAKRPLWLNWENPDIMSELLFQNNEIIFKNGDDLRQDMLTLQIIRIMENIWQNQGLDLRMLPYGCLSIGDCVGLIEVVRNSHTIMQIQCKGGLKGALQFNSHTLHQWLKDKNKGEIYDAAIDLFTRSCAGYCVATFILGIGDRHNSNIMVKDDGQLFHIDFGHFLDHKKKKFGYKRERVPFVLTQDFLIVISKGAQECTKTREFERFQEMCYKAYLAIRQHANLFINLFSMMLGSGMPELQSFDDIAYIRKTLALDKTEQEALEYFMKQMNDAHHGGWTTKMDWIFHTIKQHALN
Method in brief: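 Radiometric filter-binding assay: PI3Kα (25 ng/well) preincubated 20 min at room temperature with compound and PIP2-containing lipid vesicles plus phosphotyrosine PDGFRβ peptide. Reaction started with cold ATP (1 μM final) and [33P]-ATP and run 120 min at room temperature; filter-captured radioactivity counted, IC50 from duplicate dilution series.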

Structure (SMILES) | EC50 [1] [nM] | EC50 [2] [nM] | EC50 [3] [nM] | EC50 [4] [nM] | EC50 [5] [nM] | IC50 [6] [nM]
Cc1ncc(C#Cc2c(C)ncnc2N2CCOCC2)cc1NS(=O)(=O)C1CCCCC1 [Example I-39, Cyclohexanesulfonic acid [2-methyl-5-(4-methyl-6-morpholin-4-yl-pyrimidin-5-ylethynyl)-pyridin-3-yl]-amide] | 1790 | 2910 | 1290 | 1850 | 2770 | 5
Cc1ncc(C#Cc2c(C)ncnc2N2CCOCC2)cc1NS(=O)(=O)c1ccccc1 [Example I-40, N-[2-Methyl-5-(4-methyl-6-morpholin-4-yl-pyrimidin-5-ylethynyl)-pyridin-3-yl]-benzenesulfonamide] | 145 | 386 | 49 | 120 | 147 | 0.28
Cc1ncc(C#Cc2c(C)ncnc2N2CCOCC2)cc1NS(=O)(=O)c1ccc(F)cc1F [Example I-41, 2,4-Difluoro-N-[2-methyl-5-(4-methyl-6-morpholin-4-yl-pyrimidin-5-ylethynyl)-pyridin-3-yl]-benzenesulfonamide] | 102 | 287 | 19 | 146 | 69 | 0.51
Cc1ncc(C#Cc2c(C)ncnc2N2CCOCC2)cc1NS(=O)(=O)c1cnoc1C [Example I-47, 5-Methyl-isoxazole-4-sulfonic acid [2-methyl-5-(4-methyl-6-morpholin-4-yl-pyrimidin-5-ylethynyl)-pyridin-3-yl]-amide] | 25000 | 25000 | 10000 | 25000 | 10000 | 21
Cc1cc(S(=O)(=O)Nc2cc(C#Cc3c(C)ncnc3N3CCOCC3)cnc2C)c(C)s1 [Example I-48, 2,5-Dimethyl-thiophene-3-sulfonic acid [2-methyl-5-(4-methyl-6-morpholin-4-yl-pyrimidin-5-ylethynyl)-pyridin-3-yl]-amide] | 533 | 341 | 14 | 100 | 754 | 0.55
Cc1ncc(C#Cc2c(C)ncnc2N2CCOCC2)cc1NS(=O)(=O)c1ccco1 [Example I-49, Furan-2-sulfonic acid [2-methyl-5-(4-methyl-6-morpholin-4-yl-pyrimidin-5-ylethynyl)-pyridin-3-yl]-amide] | 393 | 512 | 49 | 356 | 444 | 2
Cc1ncc(C#Cc2c(C)ncnc2N2CCOCC2)cc1NS(=O)(=O)c1ccoc1 [Example I-50, Furan-3-sulfonic acid [2-methyl-5-(4-methyl-6-morpholin-4-yl-pyrimidin-5-ylethynyl)-pyridin-3-yl]-amide] | 239 | 289 | 16 | 128 | 330 | 1
Cc1ncc(C#Cc2c(C)ncnc2N2CCOCC2)cc1NS(=O)(=O)c1ccc(Cl)s1 [Example I-52, 5-Chloro-thiophene-2-sulfonic acid [2-methyl-5-(4-methyl-6-morpholin-4-yl-pyrimidin-5-ylethynyl)-pyridin-3-yl]-amide] | 298 | 443 | 39 | 274 | 224 | 0.47
Cc1ncc(C#Cc2c(C)ncnc2N2CCOCC2)cc1NS(=O)(=O)c1c(C)noc1C [Example I-53, 3,5-Dimethyl-isoxazole-4-sulfonic acid [2-methyl-5-(4-methyl-6-morpholin-4-yl-pyrimidin-5-ylethynyl)-pyridin-3-yl]-amide] | 915 | 1280 | 135 | 793 | 884 | 2
Cc1ncc(C#Cc2c(C)ncnc2N2CCOCC2)cc1NS(=O)(=O)c1cccnc1 [Example I-54, Pyridine-3-sulfonic acid [2-methyl-5-(4-methyl-6-morpholin-4-yl-pyrimidin-5-ylethynyl)-pyridin-3-yl]-amide] | 274 | 581 | 44 | 553 | 949 | 1
Cc1ncc(C#Cc2c(C)ncnc2N2CCOCC2)cc1NS(=O)(=O)c1cn(C)c(C)n1 [Example I-55, 1,2-Dimethyl-1H-imidazole-4-sulfonic acid [2-methyl-5-(4-methyl-6-morpholin-4-yl-pyrimidin-5-ylethynyl)-pyridin-3-yl]-amide] | 1680 | 1980 | 208 | 1180 | 1550 | 1
Cc1ncc(C#Cc2c(C)ncnc2N2CCOCC2)cc1NS(=O)(=O)c1ccnn1C [Example I-56, 2-Methyl-2H-pyrazole-3-sulfonic acid [2-methyl-5-(4-methyl-6-morpholin-4-yl-pyrimidin-5-ylethynyl)-pyridin-3-yl]-amide] | 239 | 779 | 125 | 756 | 487 | 0.44
COCCN1CCN(c2ncnc(C)c2C#Cc2cnc(C)c(NS(=O)(=O)c3ccccc3)c2)CC1 [Example I-57, N-(5-{4-[4-(2-Methoxy-ethyl)-piperazin-1-yl]-6-methyl-pyrimidin-5-ylethynyl}-2-methyl-pyridin-3-yl)-benzenesulfonamide] | 443 | 338 | 2 | 82 | 1300 | 0.83
Cc1ncc(C#Cc2c(C)ncnc2N2CCN(C3CC3)CC2)cc1NS(=O)(=O)c1ccccc1 [Example I-58, N-{5-[4-(4-Cyclopropyl-piperazin-1-yl)-6-methyl-pyrimidin-5-ylethynyl]-2-methyl-pyridin-3-yl}-benzenesulfonamide] | 4640 | 25000 | 1300 | 2990 | 3000 | 16
Cc1ncc(C#Cc2c(C)ncnc2N2CCN(C)C(=O)C2)cc1NS(=O)(=O)c1ccccc1 [Example I-60, N-{2-Methyl-5-[4-methyl-6-(4-methyl-3-oxo-piperazin-1-yl)-pyrimidin-5-ylethynyl]-pyridin-3-yl}-benzenesulfonamide] | 618 | 945 | 103 | 1250 | 1540 | 2
CC(=O)N1CCN(c2ncnc(C)c2C#Cc2cnc(C)c(NS(=O)(=O)c3ccccc3)c2)CC1 [Example I-61, N-{5-[4-(4-Acetyl-piperazin-1-yl)-6-methyl-pyrimidin-5-ylethynyl]-2-methyl-pyridin-3-yl}-benzenesulfonamide] | 262 | 631 | 39 | 791 | 1120 | 2
CC(=O)N1CCCN(c2ncnc(C)c2C#Cc2cnc(C)c(NS(=O)(=O)c3ccccc3)c2)CC1 [Example I-62, N-{5-[4-(4-Acetyl-[1,4]diazepan-1-yl)-6-methyl-pyrimidin-5-ylethynyl]-2-methyl-pyridin-3-yl}-benzenesulfonamide] | 969 | 1290 | 709 | 1740 | 4050 | 3
Cc1ncc(C#Cc2c(C)ncnc2N2CCCCC2)cc1NS(=O)(=O)c1ccccc1 [Example I-63, N-[2-Methyl-5-(4-methyl-6-piperidin-1-yl-pyrimidin-5-ylethynyl)-pyridin-3-yl]-benzenesulfonamide] | 1330 | 1300 | 126 | 308 | 4320 | 3
Cc1ncc(C#Cc2c(C)ncnc2N2CCOCC2)cc1NS(=O)(=O)N1CCCC1 [Example I-64, Pyrrolidine-1-sulfonic acid [2-methyl-5-(4-methyl-6-morpholin-4-yl-pyrimidin-5-ylethynyl)-pyridin-3-yl]-amide] | 584 | 773 | 59 | 71 | 5950 | 2
CCc1ncnc(N2CCN(C)CC2)c1C#Cc1cnc(C)c(NS(=O)(=O)c2ccc(F)cc2)c1 [Example I-65, N-{5-[4-Ethyl-6-(4-methyl-piperazin-1-yl)-pyrimidin-5-ylethynyl]-2-methyl-pyridin-3-yl}-4-fluoro-benzenesulfonamide] | 230 | 524 | 28 | 168 | 281 | 0.89
CCc1ncnc(N2CCC(O)CC2)c1C#Cc1cnc(C)c(NS(=O)(=O)c2ccc(F)cc2)c1 [Example I-66, N-{5-[4-Ethyl-6-(4-hydroxy-piperidin-1-yl)-pyrimidin-5-ylethynyl]-2-methyl-pyridin-3-yl}-4-fluoro-benzenesulfonamide] | 175 | 540 | 145 | 444 | 91 | 0.48
CCc1ncnc(N2CCN(S(C)(=O)=O)CC2)c1C#Cc1cnc(C)c(NS(=O)(=O)c2ccc(F)cc2)c1 [Example I-67, N-{5-[4-Ethyl-6-(4-methanesulfonyl-piperazin-l-yl)-pyrimidin-5-ylethynyl]-2-methyl-pyridin-3-yl}-4-fluoro-benzenesulfonamide] | 54 | 471 | 9 | 37 | 44 | 0.14
